Laboratory results taken from paper PMC5024318, “Crystal structures of the bifunctional tRNA methyltransferase Trm5a” (Scientific Reports, 2016).

Assays:
[1] = target: T1, PaTrm5a (Pyrococcus abyssi, UniProt Q9V2G1); assay: X-ray crystal structure, cocrystallisation with SAM (MTA as its degradation product), […] Å; format: binding; conditions: PEG 3350, HEPES pH 7.5, Ca(OAc)2, KCl, 25 °C; SAM site in D3
T1 construct: gene taw22

[2] = target: T1, PaTrm5a; assay: X-ray crystal structure, cocrystallisation, […] Å; format: binding; conditions: PEG 3350, HEPES pH 7.5, Ca(OAc)2, KCl, 25 °C; SAM site in D3

T1 sequence (Q9V2G1 whole entry): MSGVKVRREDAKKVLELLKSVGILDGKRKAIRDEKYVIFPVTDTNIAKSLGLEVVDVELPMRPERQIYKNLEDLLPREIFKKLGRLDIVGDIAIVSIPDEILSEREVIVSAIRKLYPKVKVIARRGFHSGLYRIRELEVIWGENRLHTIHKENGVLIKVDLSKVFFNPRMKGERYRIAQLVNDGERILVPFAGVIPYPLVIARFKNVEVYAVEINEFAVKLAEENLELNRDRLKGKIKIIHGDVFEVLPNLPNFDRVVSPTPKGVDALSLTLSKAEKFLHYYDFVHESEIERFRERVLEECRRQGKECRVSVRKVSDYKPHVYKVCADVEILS

| Compound | X-ray crystal structure, cocrystallisation with SAM (MTA as its degradation prod) [1] | X-ray crystal structure, cocrystallisation, 2.00 Å [2] |
| --- | --- | --- |
| CSC[C@H]1O[C@@H](n2cnc3c(N)ncnc32)[C@H](O)[C@@H]1O [MTA, 5′-methylthioadenosine] | MTA fits well in the ligand-binding pocket, and interacts with the enzyme |  |
| Nc1ncnc2c1ncn2[C@@H]1O[C@H](CSCC[C@H](N)C(=O)O)[C@@H](O)[C@H]1O [SAH, S-adenosyl-L-homocysteine] |  | the adenosine moiety and the methionine group are specifically recognised by hydrogen bonding interactions |
